In patent US12590125B2, “Peptide inhibitors for the inhibition of HIV capsid” (THE CURATORS OF THE UNIVERSITY OF MISSOURI, priority 2019, dated 2026):
Where two headings read alike, the source gives them in different places. Residues, ends and D or L forms follow the SMILES beside them.

How the values were obtained:
HIV-1 = conditions: PBMCs, 23 HIV-1 clinical isolates from different subtypes, cited from earlier work
HIV [1] = conditions: MT-4 cells; read-out: EC50, anti-HIV activity; cited from earlier work
CA-hexamers = conditions: read-out: binding affinity of CA-hexamers with PF74 by ITC; isothermal calorimetry, Bhattacharya et al., 2014; cited from earlier work
HIV [2] = conditions: MT-2 cells; cited from earlier work
HIV-1 CA-hexamers = HIV-1 CA-hexamers (Human immunodeficiency virus type 1 group M subtype B, UniProt P12493); test: biochemical; type: binding
Protocol: During the MST experiment, a temperature gradient is induced by an infrared laser. The directed movement of molecules through the temperature gradient is detected and quantified using covalently attached fluorophore.
Fluorescent labeling of CA with Alexa Fluor 647 analog NT647 was performed according to the manufacturer's instructions (MO-L004 Monolith Protein Labeling Kit; NanoTemper Technologies GmbH, Munich, Germany). 20 μM protein was incubated overnight with 3 molar excess of dye at room temperature in a conjugation buffer provided with the labeling kit. The unreacted dye was removed by filtration through a gravity flow column provided with the kit. The elution fractions were collected in 2×MST buffer (100 mM MOPS, pH 7.0, 200 mM NaCl, and 0.2% pluronic F-127). Fluorescence intensity of each fraction was evaluated by MST (Monolith NT.115, NanoTemper Technologies GmbH, Munich, Germany), and fractions containing labelled protein were pooled. Protein concentration was determined by NANODROP (Thermo Scientific, Waltham, MA) spectrophotometer. Aliquots were stored at −80° C. until use. […] The data were analyzed using MO. Affinity software (version 2.3) (NanoTempet Technologies, CA) by fitting the data point to a quadratic equation (Equation 1) and plotting by PRISM (Version 6.0) (GraphPad Inc. La Jolla, CA).

Question: For `CC(C)(C#Cc1ccc(-c2ccc(Cl)c3c(NS(C)(=O)=O)nn(CC(F)(F)F)c23)c([C@H](Cc2cc(F)cc(F)c2)NC(=O)Cn2nc(C(F)(F)F)c3c2C(F)(F)[C@@H]2C[C@H]32)n1)S(C)(=O)=O` [GS-6207], which EC50 (HIV-1; read-out: mean EC50) is on record?
Answer: 0.05 nM

Question: And the EC50 (HIV-1; read-out: range of EC50 over clinical isolates)?
Answer: 0.02 to 0.16 nM

Question: What about the EC50 (HIV [1]) of the same molecule?
Answer: 0.1 nM

Question: Which Kd (CA-hexamers) does the source give for `Cc1[nH]c2ccccc2c1CC(=O)N[C@@H](Cc1ccccc1)C(=O)N(C)c1ccccc1` [PF74] here?
Answer: 262 nM

Question: What about the EC50 (HIV [2]) of the same molecule?
Answer: 570 nM

Question: With `CC(C)[C@@H]1NC(=O)CNC(=O)[C@H](CO)NC(=O)CNC(=O)[C@@H]2CCCN2C(=O)[C@H](Cc2ccccc2)NC(=O)[C@H](CC(N)=O)NC(=O)[C@H](C(C)C)NC(=O)[C@@H]2CCCN2C(=O)CNC(=O)[C@H](Cc2ccccc2)NC(=O)[C@H]([C@@H](C)O)NC(=O)[C@H](Cc2ccccc2)NC1=O` [Pep-2-cyclic] (cyclo(FGPVNFPGSGVFT)) as the molecule, how does the Kd (HIV-1 CA-hexamers) read?
Answer: 32 ± 3 nM

Question: What about the “fold better CA binding affinity than PF74” value (HIV-1 CA-hexamers; Pep-2-cyclic vs PF74, MST) of the same molecule?
Answer: ~7 fold
